For experiment [1], the system named is breast cancer cell lines. The experiment in a line: Drug response (GI50, 50% reduction in proliferation) of breast cancer cell lines in culture. The experiment is classed as cell-based. Particulars: for range of observed drug sensitivities, in words, relative to another drug: comparison of sensitivity ranges across cell lines; for range over which the cell lines varied in sensitivity to the drug: sensitivity = negative base ten logarithm of the 50% growth inhibition concentration, difference between most and least sensitive cell lines. An excerpt:
Recently, large datasets describing the effects of various drugs on the growth of cancer cells in culture have been generated for the purpose of accelerating the preclinical evaluation of new compounds. One of largest datasets with respect to the number of drugs and breast cancer cell lines describes the effects of ninety (90) different drugs on seventy (70) different breast cancer cell lines. The dataset includes measurements of the concentration of each drug that causes a 50% reduction in the proliferation of cells in culture (i.e., GI50). […] Acquired resistance to chemotherapeutics or targeted agents is recognized and is being studied intensively. […] There appears to be a relatively large amount of intrinsic variability in the responses to drugs by these tumor-derived cell lines. These intrinsic differences in sensitivity, if replicated in breast tumors, could explain some of the variability in responses of tumors to chemotherapeutic drugs or targeted agents.
Another dataset that is statistically analyzed using lasso regression (e.g., a least absolute shrinkage and selection operator [i.e., lasso] regression model) includes responses of the cancer cell lines to various cancer treatment drugs (e.g., 5, 10, 20, 30, 40, 50 or more drugs). In one example described herein, the datasets include responses from approximately 90 drugs on 70 different breast cancer cell lines. As mentioned elsewhere herein, the drug response data are determined by measuring the concentration of drugs or compounds that causes a 50% reduction (e.g., GI50 or IC50 data) in the proliferation of the cells in culture.
Sensitivity is the negative base ten logarithm of the 50% growth inhibition concentration. In the RPPA dataset, which has the most cell lines, the HER2 overexpressing lines are clearly separated from the others. This difference was used to define HER2 overexpression (e.g., represented by open circles), and the same definition of overexpression versus normal expression is used in the other protein datasets and in other Figures herein. For the glycoprotein and MRM datasets, the base ten logarithms are given on the horizontal axes. The quantitative relationships between HER2 expression levels and drug sensitivities in FIG. 2 are shown in scatterplots, in which each point corresponds to a particular cell line. The protein datasets all include cell lines that overexpress HER2. These cell lines are generally clustered on the right sides of the plots as separate groups.

In experiment [2] the test system is breast cancer cell lines. Particulars: FIG. 2; HER2 over-expressing versus other breast cancer cell lines; cited from earlier work.

The text below walks through data of patent US20150254433A1, “Methods and Models for Determining Likelihood of Cancer Drug Treatment Success Utilizing Predictor Biomarkers, and Methods of Diagnosing and Treating Cancer Using the Biomarkers” (priority 2014, published 2015).

Molecules are shown by their SMILES.

`O=c1[nH]c2ccccc2n1C1CCN(Cc2ccc(-c3nc4cc5[nH]cnc5cc4nc3-c3ccccc3)cc2)CC1` [Sigma AKT1,2 inhibitor]: the “range of observed drug sensitivities, in words, relative to another drug” value (shortened to “range … relative to another drug”) in the experiment with breast cancer cell lines [1] is given as “significantly lower”.
For `CC(=O)O[C@@]12CO[C@@H]1C[C@H](O)[C@@]1(C)C(=O)[C@H](O)C3=C(C)[C@@H](OC(=O)[C@H](O)[C@@H](NC(=O)OC(C)(C)C)c4ccccc4)C[C@@](O)([C@@H](OC(=O)c4ccccc4)[C@H]21)C3(C)C` [docetaxel], the “range … relative to another drug” value in the experiment on breast cancer cell lines [1] is “much smaller range than the sensitivity of the cell lines to rapamycin”.
Turning to `CO[C@H]1C[C@@H]2CC[C@@H](C)[C@@](O)(O2)C(=O)C(=O)N2CCCC[C@H]2C(=O)O[C@H]([C@H](C)C[C@@H]2CC[C@@H](OCCO)[C@H](OC)C2)CC(=O)[C@H](C)/C=C(\C)[C@@H](O)[C@@H](OC)C(=O)[C@H](C)C[C@H](C)/C=C/C=C/C=C/1C` [everolimus], the “range over which the cell lines varied in sensitivity to the drug” value (from here on “range over which the cell lines varied”) in the experiment with breast cancer cell lines [1] was 3.3 orders of magnitude.
On to `Nc1ccn([C@@H]2O[C@H](CO)[C@@H](O)C2(F)F)c(=O)n1` [gemcitabine], for which the “range over which the cell lines varied” value in the experiment on breast cancer cell lines [1] is “approximately four”.
Turning to `CS(=O)(=O)CCNCc1ccc(-c2ccc3ncnc(Nc4ccc(OCc5cccc(F)c5)c(Cl)c4)c3c2)o1` [lapatinib], the “drug sensitivity of HER2 over-expressing cell lines” value with breast cancer cell lines [2] is recorded as “comparatively high drug sensitivity”.
On to `CC(=O)O[C@H]1C(=O)[C@@]2(C)[C@H]([C@H](OC(=O)c3ccccc3)[C@]3(O)C[C@H](OC(=O)[C@H](O)[C@@H](NC(=O)c4ccccc4)c4ccccc4)C(C)=C1C3(C)C)[C@]1(OC(C)=O)CO[C@@H]1C[C@@H]2O` [paclitaxel], for which, in the experiment with breast cancer cell lines [1], the “range … relative to another drug” value was “much smaller range than the sensitivity of the cell lines to rapamycin”.
As to `CO[C@H]1C[C@@H]2CC[C@@H](C)[C@@](O)(O2)C(=O)C(=O)N2CCCC[C@H]2C(=O)O[C@H]([C@H](C)C[C@@H]2CC[C@@H](O)[C@H](OC)C2)CC(=O)[C@H](C)/C=C(\C)[C@@H](O)[C@@H](OC)C(=O)[C@H](C)C[C@H](C)/C=C/C=C/C=C/1C` [rapamycin], in the experiment with breast cancer cell lines [1], the “range over which the cell lines varied” value is 4.6 orders of magnitude.
On to `CO[C@H]1C[C@@H]2CC[C@@H](C)[C@@](O)(O2)C(=O)C(=O)N2CCCC[C@H]2C(=O)O[C@H]([C@H](C)C[C@@H]2CC[C@@H](OC(=O)C(C)(CO)CO)[C@H](OC)C2)CC(=O)[C@H](C)/C=C(\C)[C@@H](O)[C@@H](OC)C(=O)[C@H](C)C[C@H](C)/C=C/C=C/C=C/1C` [temsirolimus], for which, in the experiment on breast cancer cell lines [1], the “range over which the cell lines varied” value was 3.7 orders of magnitude.
For `CCC1=C[C@@H]2CN(C1)Cc1c([nH]c3ccccc13)[C@@](C(=O)OC)(c1cc3c(cc1OC)N(C)[C@H]1[C@@](O)(C(=O)OC)[C@H](OC(C)=O)[C@]4(CC)C=CCN5CC[C@]31[C@@H]54)C2` [vinorelbine], in the experiment on breast cancer cell lines [1], the “range over which the cell lines varied” value is “approximately four”.
